The values that follow come from article PMC7076710, “Synthesis, Identification, and Structure–Activity Relationship Analysis of GATA4 and NKX2-5 Protein–Protein Interaction Modulators” (Journal of Medicinal Chemistry, 2019).

Holding throughout (format): cell-based
The target of data set [1] is T1, GATA4–NKX2-5 transcriptional synergy (Mus musculus, UniProt P42582+Q08369).
T1 construct: expressed in transfected cells; host or cells: COS-1
Kind of data set: GATA4–NKX2-5 transcriptional synergy luciferase reporter assay (3xNKE reporter, COS-1 cells). Particulars: COS-1, luciferase reporter activity relative to control. On the technique in general: Reporter assays use an easily measured gene product as a stand-in for the process of interest.

The target in data set [2] is T2, NKX2-5 transcriptional activity (Mus musculus, UniProt P42582).
T2 construct: expressed in transfected cells; host or cells: COS-1
T2 sequence (P42582 whole entry): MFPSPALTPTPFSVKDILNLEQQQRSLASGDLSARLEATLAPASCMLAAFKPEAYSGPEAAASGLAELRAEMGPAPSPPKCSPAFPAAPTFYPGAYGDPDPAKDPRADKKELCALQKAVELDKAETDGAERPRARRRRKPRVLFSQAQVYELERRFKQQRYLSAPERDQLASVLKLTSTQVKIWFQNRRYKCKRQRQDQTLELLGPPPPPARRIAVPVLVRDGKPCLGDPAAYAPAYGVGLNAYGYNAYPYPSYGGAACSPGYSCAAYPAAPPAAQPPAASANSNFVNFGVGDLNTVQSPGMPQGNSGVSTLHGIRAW
Kind of data set: NKX2-5 luciferase reporter assay (3xNKE reporter, COS-1 cells). Particulars: COS-1, luciferase reporter activity relative to control; for activity at 3 µM: read-out: NKX.3µM; for activity at 10 µM: read-out: NKX.10µM.

Data set [3] deals with T3, GATA4 transcriptional activity (Mus musculus, UniProt Q08369).
T3 construct: expressed in transfected cells; host or cells: COS-1
T3 sequence (Q08369 whole entry): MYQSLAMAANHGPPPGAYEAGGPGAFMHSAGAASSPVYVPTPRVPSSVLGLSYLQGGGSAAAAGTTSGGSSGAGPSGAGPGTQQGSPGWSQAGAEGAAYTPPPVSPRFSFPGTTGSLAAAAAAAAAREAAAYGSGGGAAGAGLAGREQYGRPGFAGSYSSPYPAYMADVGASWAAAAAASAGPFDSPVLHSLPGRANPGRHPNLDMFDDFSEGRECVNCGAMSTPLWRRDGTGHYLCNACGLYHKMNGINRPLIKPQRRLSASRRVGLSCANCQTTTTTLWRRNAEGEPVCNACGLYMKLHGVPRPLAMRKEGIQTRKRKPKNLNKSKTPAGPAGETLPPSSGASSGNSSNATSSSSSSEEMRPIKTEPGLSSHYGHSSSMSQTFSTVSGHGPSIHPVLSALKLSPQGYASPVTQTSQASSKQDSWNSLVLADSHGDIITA
In words: GATA4 luciferase reporter assay (tandem GATA-site reporter, COS-1 cells). Particulars: COS-1, luciferase reporter activity relative to control.

Data set [4] concerns COS-1 cells. Kind of data set: LDH assay (necrosis).
The test system of data set [5] is COS-1 cells. In words: MTT assay (cell viability). Conditions: for MTT.1µM / MTT.3µM / MTT.10µM / MTT.30µM: cell viability. In general terms: Tetrazolium dyes change colour on reduction, which living cells bring about.

SMILES strings stand for the structures.

T1 sequence (Q08369 whole entry): as above
T1 sequence (P42582 whole entry): as the sequence (P42582 whole entry) above

As to `CCN(CC)c1ccc(NC(=O)c2cc(C)oc2-c2ccccc2)cc1` [Compound 54], in data set [1], the activity at 3 µM is 46% and the activity at 10 µM amounted to 35.4%. For the same molecule, the activity at 3 µM in data set [2] worked out at 60.8%. For the same molecule, in data set [3], the activity at 3 µM stood at 72.4%. In the data set with COS-1 cells [4], this molecule showed an LDH.1µM of 1.02, an LDH.3µM of 0.88, an LDH.10µM of -0.26 and an LDH.30µM of 3.27. Besides, in the data set on COS-1 cells [5], the MTT.1µM was 97.73, the MTT.3µM was determined as 83.61, the MTT.10µM was 74.16 and the MTT.30µM is 71.09. Moreover, the “toxicity class in the MTT assay” value with COS-1 cells [5] (24-h exposure, classified at 10 μM) is reported as “most toxic”.

Consider `CN(C)c1ccc(NCc2c[nH]nc2-c2ccc(F)cc2)cc1` [SI78], for which, in data set [1], the activity at 3 µM stood at 67.2% and the activity at 10 µM stood at 42.2%. In data set [2], the activity at 3 µM amounted to 70.7% and the activity at 10 µM is 43%. In addition, in data set [3], the activity at 3 µM came out at 83.7% and the activity at 10 µM was determined as 49.1%. In the data set on COS-1 cells [4], this molecule showed an LDH.1µM of 0.7, an LDH.3µM of 1, an LDH.10µM of -1.06 and an LDH.30µM of -2.54. Further, in the data set with COS-1 cells [5], the MTT.1µM was 105.6, the MTT.3µM stood at 102.53, the MTT.10µM came to 103.53 and the MTT.30µM worked out at 103.47.

Regarding `CCN(CC)c1ccc(NC(=O)c2cnoc2-c2ccccc2)cc1` [Compound 47d], in data set [1], the activity at 3 µM was 65.4%. Moreover, the activity at 3 µM in data set [2] amounted to 56.3%. Further, the activity at 3 µM in data set [3] amounted to 95.2%. In the data set on COS-1 cells [4], the LDH.1µM was 3.03, the LDH.3µM is on record as 0.88, the LDH.10µM is reported as -0.44 and the LDH.30µM came to 0.42. In the data set on COS-1 cells [5], this molecule registered an MTT.1µM of 107.01, an MTT.3µM of 95.86, an MTT.10µM of 90.87 and an MTT.30µM of 93.95.

With `COc1ccc(-c2cc(N)nn2C(=O)c2c(-c3ccccc3)noc2C)cc1` [SI137, [3-Amino-5-(4-methoxyphenyl)-1H-pyrazol-1-yl] (5-methyl-3-phenylisoxazol-4-yl) methanone], in data set [1], the activity at 3 µM stood at 90.6% and the activity at 10 µM was found to be 72.1%. In data set [2], the activity at 3 µM worked out at 88% and the activity at 10 µM came to 65.2%. Moreover, in data set [3], the activity at 3 µM worked out at 85.3% and the activity at 10 µM turned out to be 76.5%. Further, in the data set on COS-1 cells [4], the LDH.1µM is 3.49, the LDH.3µM is given as 2.98, the LDH.10µM is reported as 0.2 and the LDH.30µM is given as -2.71. Besides, in the data set on COS-1 cells [5], the MTT.1µM was found to be 100.57, the MTT.3µM was found to be 105.12, the MTT.10µM worked out at 104.9 and the MTT.30µM turned out to be 96.15.

In the case of `CCN(CC)c1ccc(NC(=O)c2c[nH]nc2-c2ccccc2)cc1` [SI89], in data set [1], the activity at 3 µM turned out to be 80.7% and the activity at 10 µM amounted to 93.5%. Also, in data set [2], the activity at 3 µM turned out to be 101% and the activity at 10 µM was found to be 89%. Moreover, in data set [3], the activity at 3 µM was found to be 103% and the activity at 10 µM was 81.8%. In the data set on COS-1 cells [4], this molecule had an LDH.1µM of 2.32, an LDH.3µM of 1.68, an LDH.10µM of 1.11 and an LDH.30µM of -1.15. Further, in the data set on COS-1 cells [5], the MTT.1µM came to 100.37, the MTT.3µM was 105.87, the MTT.10µM came out at 100.53 and the MTT.30µM worked out at 96.92.

Consider `CCN(CC)c1ccc(NC(=O)c2c(C)noc2-c2cc(C)on2)cc1` [Compound 3], for which the activity at 3 µM in data set [1] turned out to be 75.5%. The activity at 3 µM in data set [2] was 106%. In data set [3], the activity at 3 µM was 96.7% and the activity at 10 µM came out at 102%. In addition, in the data set with COS-1 cells [4], the LDH.1µM came out at 0.35, the LDH.3µM is on record as -0.67, the LDH.10µM is recorded as -1.59 and the LDH.30µM is given as -1.83. For the same molecule, in the data set on COS-1 cells [5], the MTT.1µM was determined as 105.34, the MTT.3µM worked out at 105.48, the MTT.10µM was determined as 100.7 and the MTT.30µM is listed as 92.68.

As for `CC[N+](O)(CC)c1ccc(NC(=O)c2c(-c3ccccc3)noc2C)cc1` [SI4], in data set [1], the activity at 3 µM came out at 101% and the activity at 10 µM worked out at 93.6%. For the same molecule, in data set [2], the activity at 3 µM was determined as 118% and the activity at 10 µM came out at 99.9%. In addition, in data set [3], the activity at 3 µM was determined as 87.2% and the activity at 10 µM was 86.9%. In the data set on COS-1 cells [4], this molecule registered an LDH.1µM of 3.36, an LDH.3µM of 1.95, an LDH.10µM of 1 and an LDH.30µM of -1.21. In the data set with COS-1 cells [5], this molecule displayed an MTT.1µM of 104.81, an MTT.3µM of 107.68, an MTT.10µM of 104.23 and an MTT.30µM of 95.62.

For `CCC(OC)c1ccc(OCc2c(-c3ccccc3)noc2C)cc1` (racemic) [Compound 34e, (rac)-4-[[4-(1-Methoxypropyl)phenoxy]methyl]-5-methyl-3-phenylisoxazole], in data set [1], the activity at 3 µM turned out to be 79.7%. In data set [2], the activity at 3 µM was determined as 104%. In data set [3], the activity at 3 µM came out at 101%. In the data set on COS-1 cells [4], the LDH.1µM came to 1.31, the LDH.3µM is -0.22, the LDH.10µM was -0.78 and the LDH.30µM was 0.55. In the data set on COS-1 cells [5], the MTT.1µM was found to be 102.33, the MTT.3µM came to 95.44, the MTT.10µM was 86.07 and the MTT.30µM is reported as 79.5.

`CCN(CC)c1ccc(NCc2c[nH]nc2-c2cc(F)cc(F)c2)cc1` [SI79]: in data set [1], the activity at 3 µM turned out to be 98.9% and the activity at 10 µM was 92.2%. Also, in data set [2], the activity at 3 µM was determined as 88.7% and the activity at 10 µM turned out to be 71.4%. Further, in data set [3], the activity at 3 µM was 92.7% and the activity at 10 µM was found to be 78.5%. In the data set with COS-1 cells [4], this molecule gave an LDH.1µM of 2.87, an LDH.3µM of 1.38, an LDH.10µM of -0.15 and an LDH.30µM of -0.35. In the data set with COS-1 cells [5], this molecule had an MTT.1µM of 101.61, an MTT.3µM of 103.16, an MTT.10µM of 104.94 and an MTT.30µM of 103.16.

Take `CCN(CC)c1ccc(NC(=O)c2c(C)noc2-c2ccccc2)cc1` [Compound 65]: the activity at 3 µM in data set [1] was found to be 51.9%. Also, the activity at 3 µM in data set [2] stood at 53.5%. Also, in data set [3], the activity at 3 µM was found to be 90% and the activity at 10 µM stood at 64.2%. In the data set with COS-1 cells [4], the LDH.1µM was 0.39, the LDH.3µM is on record as -0.82, the LDH.10µM is given as -1.85 and the LDH.30µM is on record as -0.07. Also, in the data set with COS-1 cells [5], the MTT.1µM came out at 96.79, the MTT.3µM turned out to be 83.46, the MTT.10µM amounted to 81.39 and the MTT.30µM was found to be 84.64.

Regarding `CCCn1nnc(-c2ccccc2)c1C(=O)Nc1ccc(N(CC)CC)cc1` [SI65], in data set [1], the activity at 3 µM turned out to be 104% and the activity at 10 µM worked out at 96.1%. In addition, in data set [2], the activity at 3 µM came to 115% and the activity at 10 µM stood at 91.1%. Further, in data set [3], the activity at 3 µM is 113% and the activity at 10 µM worked out at 97.4%. Moreover, in the data set on COS-1 cells [4], the LDH.1µM is recorded as 2.51, the LDH.3µM was 1.17, the LDH.10µM is reported as 1.55 and the LDH.30µM worked out at 2.48. In the data set on COS-1 cells [5], this molecule returned an MTT.1µM of 101.13, an MTT.3µM of 112.84, an MTT.10µM of 109.58 and an MTT.30µM of 105.89.
